Laboratory results: US8092833B2, “Compositions containing inclusion complexes” (California Institute of Technology, priority 2000, dated 2012)
Where a SMILES comes first, the peptide text is derived from it. The star is where a group is joined. Adamantane1carbonyl = O=C(C12CC3CC(CC(C3)C1)C2)*; {FITC} = fluorescein (FITC) label; Ad = adamantane

Columns and labels:
HUH-7 cells = assay: FITC-Oligo uptake by HUH-7 cells after post-complexation pegylation, FACS (Example 41); format: cell-based; details: 3+/− charge ratio, 1:1 PEG to cyclodextrin, 15 minute incubation
Experimental: Step 1: Transfection mixtures were prepared as follows: An equal volume of cationic, 12 was added to 3 μg of FITC-Oligos (0.1 μg/μL in water) at a 3+/−charge ratio of polymer to DNA. To the complexes was added free PEG or Ad-PEG5000 (as prepared in Example 40) at a 1:1 PEG to cyclodextrin ratio.
Step 2. HUH-7 cells were plated at 3×10^5 cells/well in 6 well plates and maintained in 4 mLs of DMEM+10% FBS+Antibiotic/Antimycotic for 24 hours. After 24 hours, the cells were washed with PBS and 1 mL of Optimem containing the transfection mixtures of Step 1 was added to the cells. After a 15 minute incubation, the transfection media was removed, the cells were washed with PBS and 1 mL of Optimem was added to each well. The cells were incubated for another 30 minutes at 37° C. The cells were then washed with Cell Scrub Buffer (Gene Therapy Systems) to remove surface-associated complexes and PBS and then detached from the wells by trypsin treatment. The cells were then prepared and analyzed by FACS analysis for FITC-Oligo uptake. The modification of the complexes by Ad-PEG5000 decreases uptake of the FITC-Oligo/polymer complexes.

BHK-21 cells = assay: Toxicity of GALA / GALA-Ad compositions by total protein of cell lysates (Example 35); format: cell-based; details: peptide added to 12/pGL-CV3 5+/−, 48 hours after transfection
Experimental: The toxicity of GALA and GALA-Ad modified compositions was determined by measuring the protein concentrations of the cell lysates obtained in the transfection experiments. BHK-21 cells were transfected with 1 μg of pGL-CV3 complexed with 12 at 5+/−charge ratio. Prior to transfection, various ratios of GALA and GALA-Ad were added to the complexes. Cell survival for transfections in the presence of GALA (solid bars) and GALA-Ad (white bars) was determined by assaying for total protein concentrations 48 hours after transfection and normalizing each sample with protein levels for untransfected cells. The protein concentrations are reported as the mean±SD of three replicates were averaged and divided by the average protein concentration of cells transfected with 12/pGL-CV3 compositions alone and reported as fraction cell survival (FIG. 7).

HepG2 cells = assay: Galactose-mediated luciferase transfection of HepG2 hepatoma cells (Example 49); format: cell-based; details: for transfection of HepG2 cells: 12/pCMV-Luc, 2 CD:1 PEG
Experimental: HepG2 cells were plated in 24-well plates at 50,000 cells/well. 1 μg of pCMV-Luc was contacted with an equal volume of 12 and modified as indicated below. Modification with PEG-containing complexing agents was done at a 2:1 CD:PEG ratio, where CD represents the cyclodextrins in 12.
200 μL of Optimem was added to each transfection mixture and transferred to each well of cells. 4 hours after transfection, 800 μL of complete media was added to each well. The media was removed, cells washed with PBS, and 1 mL of complete media added to each well 24 hours after transfection. 48 hours after transfection cells were washed with PBS, lysed and analyzed for luciferase activity. The described transfection procedure was also executed in the presence of 1 mM glucose or 1 mM galactose as a competitive inhibitor.

[1] = Zeta potential of particulate composites modified with PEG-peptide-Ad agents (Example 49); format: physicochemical; details: 12/pCMV-Luc, 2 CD:1 PEG
[2] = Zeta potential of Tf-modified polyplexes (Example 58); format: physicochemical; details: 12/DNA 3+/−
Experimental: An equivolume aliquot of 12 was added to an aliquot of plasmid DNA ([…], 0.1 mg/mL in water) at a 3+/−charge ratio to form the particulate composite. Holo-transferrin or holo-Tf-PEG-Ad (17 mg/mL in water) was then added to the particulate composite. The particles were diluted by the addition of 1.2 mL of water and zeta potential determined by measurements on a ZetaPals dynamic light scattering instrument (Brookhaven Instruments). The unmodified holo-transferrin associates with the particulate composites by electrostatic interactions. […] The holo-Transferrin-PEG-Ad (designated Tf-PEG-Ad in FIG. 25) is likely to associate to the particulate composites by both electrostatic and inclusion compound interactions. Therefore, there is a higher association of holo-Tf-PEG-Ad with the particles, as evidenced by the continued decrease in zeta potential of the modified particles with higher concentrations of holo-Tf-PEG-Ad. At 2 nmol Tf/μg, particulate composites modified with holo-Tf-PEG-Ad are negatively charged (zeta potential ˜−7 mV).

For “5′-FITC-ACT GCT TAC CAG GGA TTTCAG TGC A-3′ (DNA ACTGCTTACCAGGGATTTCAGTGCA; DNA, 5' {FITC}, backbone and methylation of C not given here) [FITC-Oligo]”, the “Percent Transfected” value (HUH-7 cells) was 0%.
With `CC(C)C[C@H](NC(=O)[C@H](C)NC(=O)[C@H](CCC(=O)O)NC(=O)[C@H](CC(C)C)NC(=O)[C@H](C)NC(=O)[C@H](CCC(=O)O)NC(=O)[C@H](C)NC(=O)[C@H](CC(C)C)NC(=O)[C@H](C)NC(=O)[C@H](CCC(=O)O)NC(=O)[C@H](C)NC(=O)[C@H](CC(C)C)NC(=O)[C@H](Cc1c[nH]cn1)NC(=O)[C@H](CCC(=O)O)NC(=O)[C@H](C)NC(=O)[C@H](CC(C)C)NC(=O)[C@H](C)NC(=O)[C@H](CCC(=O)O)NC(=O)[C@H](C)NC(=O)[C@H](CC(C)C)NC(=O)[C@H](C)NC(=O)[C@H](CCC(=O)O)NC(=O)[C@H](C)NC(=O)[C@H](CC(C)C)NC(=O)[C@H](C)NC(=O)[C@H](C)NC(=O)[C@H](CCC(=O)O)NC(=O)[C@@H](N)Cc1c[nH]c2ccccc12)C(=O)N[C@@H](C)C(=O)N[C@@H](C)C(=O)O` [GALA, WEAALAEALAEALAEHLAEALAEALEALAA, reference compound] (H-WEAALAEALAEALAEHLAEALAEALEALAA-OH) the “toxicity to BHK-21 cells (fraction cell survival)” value (BHK-21 cells) was “no observable toxicity”.
For `CC(C)C[C@H](NC(=O)[C@H](C)NC(=O)[C@H](CCC(=O)O)NC(=O)[C@H](CC(C)C)NC(=O)[C@H](C)NC(=O)[C@H](CCC(=O)O)NC(=O)[C@H](C)NC(=O)[C@H](CC(C)C)NC(=O)[C@H](C)NC(=O)[C@H](CCC(=O)O)NC(=O)[C@H](C)NC(=O)[C@H](CC(C)C)NC(=O)[C@H](Cc1c[nH]cn1)NC(=O)[C@H](CCC(=O)O)NC(=O)[C@H](C)NC(=O)[C@H](CC(C)C)NC(=O)[C@H](C)NC(=O)[C@H](CCC(=O)O)NC(=O)[C@H](C)NC(=O)[C@H](CC(C)C)NC(=O)[C@H](C)NC(=O)[C@H](CCC(=O)O)NC(=O)[C@H](C)NC(=O)[C@H](CC(C)C)NC(=O)[C@H](C)NC(=O)[C@H](C)NC(=O)[C@H](CCC(=O)O)NC(=O)[C@H](Cc1c[nH]c2ccccc12)NC(=O)C12CC3CC(CC(C3)C1)C2)C(=O)N[C@@H](C)C(=O)N[C@@H](C)C(=O)O` [GALA-Ad] (Adamantane1carbonyl-WEAALAEALAEALAEHLAEALAEALEALAA-OH), the “toxicity to BHK-21 cells (fraction cell survival)” value (BHK-21 cells) was “no observable toxicity”.
For “Galactose-PEG3400-CAEAEAEAE-Ad [Gal-PEG-Pep-Ad]”, the “transfection in the presence of free galactose” value (HepG2 cells; 1 mM galactose as competitive inhibitor) was “inhibited” and the “transfection of HepG2 cells” value (HepG2 cells) was “enhanced transfection”.
With “Glucose-PEG3400-CAEAEAEAE-Ad [Glu-PEG-Pep-Ad]” the “transfection of HepG2 cells” value (HepG2 cells) was “do not readily transfect cells”.
With PEG5000-CAEAEAEAE-Ad [PEG-Pep-Ad] the “zeta potential (sign)” value [1] was “negative” and the “transfection of HepG2 cells” value (HepG2 cells) was “do not readily transfect cells”.
Work on “Tf-PEG-Ad: human transferrin coupled via lysine groups to Vinylsulfone-PEG3400-Ad” yielded a zeta potential ([2]; 2 nmol Tf/μg) of roughly −7 mV.
For “holo-transferrin: iron-loaded unmodified transferrin”, the particle charge ([2]; 2 nmol Tf/μg DNA) was “approach neutrality”.
